# According to patent US20150010917A1, “METHOD TO IDENTIFY LIGANDS FOR SIGMA-1 RECEPTORS” (LABORATORIOS DEL DR. ESTEVE S.A., priority 2012, published 2015):
# Key:
# [1] = target: T1, σ1^spCFP/YFP construct expressed in HEK-293 cells (Homo sapiens, UniProt Q99720); experiment: Single-cell real-time intramolecular FRET (iFRET) of the σ1 receptor FRET sensor; format: cell-based; conditions: for change in the FRET signal of the σ1^spCFP/YFP: 100 μM, single HEK-293 cell, FIG. 3
# T1 construct: PTHR (PTH1R) signal peptide (N); expressed in transfected cells; host or cells: HEK-293 (stably transfected, G418 selected)
# Description: In the single cell real time intramolecular-FRET approach both donor (i.e. CFP) and acceptor (i.e. YFP) are located in the same molecule, as designed for the σ1^CFP/YFP and the σ1^spCFP/YFP constructs (FIG. 1A). In brief, HEK cells permanently expressing the corresponding σ1 receptor FRET sensor were seeded in poly-D-Lysine coated coverslips and allow growing overnight. Then, the coverslips with transfected cells were mounted in an Attofluor holder and placed on an inverted Axio Observer microscope (Zeiss, Jena, Germany) equipped with a 63× oil immersion objective and a dual-emission photometry system (Till Photonics, Gräfelfing, Germany). The extracellular buffer was Hank's Balanced Salt Solution (HBSS), containing (in mM): 137 NaCl, 0.34 Na2HPO4, […], 0.44 KH2PO4, 0.5 MgCl2, 0.4 Mg2SO4, 1.26 CaCl2, 10 HEPES, 2 D-glucose and 1 ascorbic acid (pH 7.4 with NaOH).
# A Polychrome V (Till Photonics) was used as the light source. The sample was illuminated with excitation light at 436±10 nm (beam splitter dichroic long-pass; DCLP 460 nm). Excitation time was 10 ms at 10 Hz, in order to limit photobleaching. Emission light intensities were determined at 535±15 and 480±20 nm (DCLP 505 nm). No corrections for spillover between channels or direct YFP excitation were made.
# Single cells were selected for recording based on their σ1 expression as judged by its fluorescence. […] The ligands were applied using a pressure-driven, computer-controlled perfusion system (Octaflow; ALA Scientific Instruments, Westbury, N.Y., USA) and experiments were carried out at room temperature. Finally, a Digidata 1440 analog/digital converter (Molecular Devices, Sunnyvale, Calif., USA) was used for interfacing the photometry system and the perfusion system with a personal computer, which was used to control these systems and to record data. Finally, pCLAMP (Molecular Devices) and GraphPad Prism (GraphPad Software Inc., San Diego, Calif., USA) software were used for data collection and analysis.
# [2] = test system: σ1^YFP and CFP; experiment: Control experiments with coexpression of σ1^YFP and CFP; format: cell-based, human; conditions: data not shown
# Description: Next, we investigated whether σ1 challenge produced any rearrangements of the N- and C-terminal domains (i.e. conformational change) of the σ1 receptor by monitoring real time changes in the FRET efficiency. To this end, changes in the emission intensities of YFP (535 nm, yellow), CFP (480 nm, cyan) and the ratio F*535/F*480 (black) were recorded simultaneously from single cells after rapid superfusion with σ1 receptor ligands.
# [3] = target: σ1 site (Homo sapiens, UniProt Q99720); conditions: cited from earlier work
# [4] = target: sigma-2 (σ2) site (Homo sapiens, UniProt Q5BJF2); conditions: cited from earlier work
# Chain of sigma-2 (σ2) site (Q5BJF2 whole entry): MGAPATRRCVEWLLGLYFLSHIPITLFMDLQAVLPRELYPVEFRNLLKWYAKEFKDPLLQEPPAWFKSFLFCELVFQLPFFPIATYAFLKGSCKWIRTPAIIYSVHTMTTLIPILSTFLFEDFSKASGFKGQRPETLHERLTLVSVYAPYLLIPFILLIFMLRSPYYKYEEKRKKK
smiles,measurement,setting,value
"CC(C)=CCN1CCC2(C)c3cc(O)ccc3CC1C2C (single isomer, unassigned; (+)) [(+)-Pentazocine]",change in the FRET signal of the σ1^spCFP/YFP,[1],decrease
CCCN1CCC[C@H](c2cccc(O)c2)C1 [(+)-3-PPP],change in the FRET signal of the σ1^spCFP/YFP,[1],decrease
COc1ccc2c(c1)[C@]13CCCC[C@@H]1[C@H](C2)N(C)CC3 [Dextromethorphan],change in the FRET signal of the σ1^spCFP/YFP,[1],decrease
O=C(CCCN1CCC(O)(c2ccc(Cl)cc2)CC1)c1ccc(F)cc1 [Haloperidol],FRET in the presence of ligand,[2],no FRET
CCCN(CCC)CCc1ccc(OC)c(OCCc2ccccc2)c1 [NE-100],change in the FRET signal of the σ1^spCFP/YFP,[1],increase
O=C(OCCN1CCOCC1)C1(c2ccccc2)CCCCC1 [PRE-048],delay before FRET change,[1]; 100 μM ligand,~5 s
same,time constant τ of monoexponential time course of FRET change,"[1]; 100 μM ligand, n=3",10.3 ± 0.3 s
same,change in the F*535/F*480 ratio,"[1]; 100 μM ligand, rapid superfusion, single HEK-293 cells, FIG. 2D-E",rapid decrease
same,change in the FRET signal of the σ1^spCFP/YFP,[1],decrease
same,FRET in the presence of ligand,[2],no FRET
"C=CCN1CC[C@]2(C)c3cc(O)ccc3C[C@H]1[C@H]2C [SKF-10,047]",affinity for the σ1 site,[3],nanomolar affinity
same,affinity for the sigma-2 (σ2) site,[4],micromolar affinity
